In patent US9358227B2, “Pharmaceutical uses of 6-amino quinazoline or 3-cyano quinoline derivatives” (Jiangsu Hengrui Medicine Co., Ltd., priority 2009, dated 2016):

How the values were obtained:
[1] = Pharmacokinetics assay in rats, intragastric; type: in vivo; conditions: both sexes, rat, plasma, po, SD rats, 25 mg/kg, read-out: Area Under Curve AUC
Method: The pharmacokinetic behavior of the compounds of the present invention was studied and evaluated in rats. 8 healthy adult SD rats, male and female in half, were purchased from SINO-BRITSH SIPPR/BK LAB. ANIMAL LTD., CO, License number: SCXK (Shanghai) 2003-0002 The right amount of compounds were weighted and grinded with 0.5% Sodium Carboxymethyl cellulose uniformly, suspended them with 1% tween 80 to 2.5 mg/mL of suspension before use. […] 8 Healthy adult SD rats, male and female in half, were divided into 2 groups. After an overnight fast, the rats were administered intragastrically at a dose of 25.0 mg/kg. […] The plasma samples were stored at −20° C. until analysis. The rats were fed 2 hours after administration. 50 μL of rat plasmas taken at various time points after administration were mixed with 50 μL of standard series solution to obtain plasma concentration of 50.0, 100, 200, 500, 1000, 2000, 5000 ng/mL. 150 μL, methanol was added and then the mixture was mixed for 3 minute using a vortexer and centrifuged for 10 minutes at 13,500 rpm. 10 μL of the supernatant was analyzed by LC-MS/MS. The main pharmacokinetic parameters were calculated by DAS 2.0 software.

[2] = test system: xenografts of Calu-3 human lung cancer; test: Therapeutic effects against xenografts of Calu-3 human lung cancer in nude mice; type: in vivo, BALB/cA-nude mice
Method: BALB/cA-nude mice, 6 to 7 weeks old, ♀, purchased from Slaccas Experimental Animal LTD., CO.
Nude mice were hypodermic inoculated Calu-3 human lung cancer cell. After tumors grew to 150-250 mm^3, mice were randomly divided into teams (d0).
The volume of tumors and the weigh of the mice were measured and recorded for 2-3 times per week.
The calculation formula of the volume of tumor (V) is: V=½×a×b^2, a: length of tumor, b: width of tumor.

[3] = high dose (200 mg/kg), nude mice, Calu-3 xenograft

| Compound | AUC [1] [ng·h/mL] | completely degraded fraction of the tumor [2, 3] | reduced fraction of the tumor volume [2, 3] | growth of Calu-3 human lung cancer ([2]; nude mice xenograft) |
| --- | --- | --- | --- | --- |
| CCOc1cc2ncc(C#N)c(Nc3ccc(OCc4ccccn4)c(Cl)c3)c2cc1NC(=O)/C=C/[C@H]1CCCN1C [Example 5, (E)-N-[4-[[3-Chloro-4-(2-pyridylmethoxy)phenyl]amino]-3-cyano-7-ethoxy-6-quinolyl]-3-[(2R)-1-methylpyrrolidin-2-yl]prop-2-enamide] | 52800 ± 23600 | – | – | – |
| CCOc1cc2ncc(C#N)c(Nc3ccc(OCc4ccccn4)c(Cl)c3)c2cc1NC(=O)/C=C/[C@@H]1CCCN1C [Example 1, (E)-N-[4-[[3-Chloro-4-(2-pyridylmethoxy)phenyl]amino]-3-cyano-7-ethoxy-6-quinolyl]-3-[(2S)-1-methylpyrrolidin-2-yl]prop-2-enamide] | 52600 ± 39000 | ⅙ | ⅙ | markedly inhibited |
